# Laboratory results reported in US10253356B2, “Visualizing modified nucleotides and nucleic acid interactions in single cells” (SIGMA-ALDRICH CO. LLC, priority 2014, dated 2019).
# What was measured:
# SW480 cells = experiment: Cytotoxic effects (cell shape) seen in drug-treated cells during ISH-PLA imaging; format: cell-based, human; details: 500 nM for 24 hours, a few drug treated cells
# Description: Human cancer cells, i.e., DU145 (metastatic cancer; origin in prostrate migrated to brain) or SW480 (colon cancer), were grown in DMEM (Dulbecco's Modified Eagle's Medium) supplemented with 10% FBS and Pen/Strep antibiotics, and seeded ( 10^4 cells) per well of 8-well culture chambered coverglass plates (with silicone gasket). The cells were washed twice with HBSS, and then fixed with 4% paraformaldehyde solution (40 μL/well, 16% paraformaldehyde stock diluted 1:4 in 1×PBS) for 30 minutes at room temperature (RT). The crosslinking was stopped by adding 5 μL/well of 1.25M Glycine, and incubating at RT for 5 minutes. The cells were permeabilized by incubation for 1 hour at RT with permeabilization buffer (0.75% Tween 20 and 0.75% Triton X-100 in 1×PBS). The cells were rinsed with 1×PBS. For detection of 5-meC DNA, the cells were treated with 4 N HCL for 10 minutes at RT. The cells were washed with 1×PBS for 30 min at RT. The cells were treated for 1 minute with pre-warmed (37° C.) 0.25% Trypsin-EDTA solution, and the trypsin was inactivated by incubating for 2 minutes in pre-warmed (37° C.) quenching solution (i.e., DMEM supplemented with 10% FBS and 3 mg/mL BSA). The cells were washed with 1×PBS and blocked with an in situ hybridization blocking solution for 1 hour at RT.
# [1] = test system: SEPTIN 9 promoter methylation in SW480 cells; experiment: ISH-PLA visualization of SEPTIN 9 promoter methylation after drug treatment; format: cell-based, human; details: SW480 colon cancer cells, 500 nM for 24 hours, SEPTIN 9 probe set (ii), FIG. 5
# Description: With this aim, a protocol was developed to perform in-situ hybridization followed by proximity ligation assay (PLA) (a.k.a., DUOLINK®, Sigma-Aldrich) and cell imaging to visualize DNA-methylation (5 meC) on the SEPTIN 9 promoter. […] The PLA assay was performed using anti-biotin and anti-5 meC antibodies, corresponding (+ and −) PLA probes, and Far Red detection reagents.
# Human cancer cells, i.e., DU145 (metastatic cancer; origin in prostrate migrated to brain) or SW480 (colon cancer), were grown in DMEM (Dulbecco's Modified Eagle's Medium) supplemented with 10% FBS and Pen/Strep antibiotics, and seeded (˜10^4 cells) per well of 8-well culture chambered coverglass plates (with silicone gasket). The cells were washed twice with HBSS, and then fixed with 4% paraformaldehyde solution (40 μL/well, 16% paraformaldehyde stock diluted 1:4 in 1×PBS) for 30 minutes at room temperature (RT). The crosslinking was stopped by adding 5 μL/well of 1.25M Glycine, and incubating at RT for 5 minutes. The cells were permeabilized by incubation for 1 hour at RT with permeabilization buffer (0.75% Tween 20 and 0.75% Triton X-100 in 1×PBS). The cells were rinsed with 1×PBS. For detection of 5-meC DNA, the cells were treated with 4 N HCL for 10 minutes at RT. The cells were washed with 1×PBS for 30 min at RT. […]
compound,measurement,setting,value
Nc1ncn([C@@H]2O[C@H](CO)[C@@H](O)[C@H]2O)c(=O)n1 [5-Azacytidine],cytotoxic effects (altered cellular shape),SW480 cells,cytotoxic effects in terms of altered cellular shape
same,SEPTIN 9 promoter methylation (nuclear ISH-PLA signal),[1],Loss of this nuclear ISH-PLA signal
same,SEPTIN 9 promoter methylation (nuclear ISH-PLA signal),[1]; listed as 5-AzaC,diminished
